Laboratory results reported in patent publication US5475014A, “Oxazolidone derivative” (Eisai Co., Ltd., priority 1991, dated 1995).
Counter-ions that a name gives are not always drawn.

Tests used:
MAO-A = target: T1, MAO-A (Rattus norvegicus, UniProt P21396); assay: MAO-A inhibition activity with rat forebrain (14C-5-HT substrate); type: biochemical, rat (male Wistar); settings: for inhibition at 0.1 µM / Inhibiting activity MAO-A (% at 10^-7 M): 10^-7 M; for inhibition at 0.1 µM: read-out: Inhibiting activity MAO-A (% at 10^-7 M); for IC50: 5-HT 200 μM, read-out: Inhibiting activity MAO-A, IC50
T1 construct: suspension of 1 part by volume of the forebrains of male Wistar rats; from tissue; host or cells: forebrain of male Wistar rats, suspension in potassium phosphate buffer
T1 sequence (P21396 1-526): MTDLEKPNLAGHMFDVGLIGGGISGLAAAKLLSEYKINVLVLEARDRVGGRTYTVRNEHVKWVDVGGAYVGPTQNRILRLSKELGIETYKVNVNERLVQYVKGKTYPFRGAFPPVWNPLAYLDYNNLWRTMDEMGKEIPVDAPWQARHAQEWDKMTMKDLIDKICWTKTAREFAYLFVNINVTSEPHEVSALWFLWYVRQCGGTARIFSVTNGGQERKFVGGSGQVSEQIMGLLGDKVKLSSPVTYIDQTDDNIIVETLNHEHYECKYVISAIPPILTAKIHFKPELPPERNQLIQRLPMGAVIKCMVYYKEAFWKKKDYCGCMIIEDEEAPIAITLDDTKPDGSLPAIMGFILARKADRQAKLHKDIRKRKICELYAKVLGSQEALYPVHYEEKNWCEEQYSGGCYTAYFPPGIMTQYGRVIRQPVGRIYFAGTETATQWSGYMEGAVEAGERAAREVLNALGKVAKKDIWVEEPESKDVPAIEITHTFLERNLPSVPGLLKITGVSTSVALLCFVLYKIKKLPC
Procedure: (§1) Determination of MAO inhibition activity with the use of rat forebrain:
(§2) The MAO inhibition activity was determined by a method of Prada et al. (J. Pharmacol. Exp. Ther., 248, 400-414 (1989)).
(§3) The enzyme reaction was conducted in 300 μl of a solution having the following composition:
(§4) ^14 C-labelled enzyme substrate
(§5) The enzyme source used was a suspension of 1 part by volume of the forebrains of male Wistar rats in 5 parts by volume of a 0.1M potassium phosphate buffer (pH 7.4). The enzyme source was mixed with the test compound and the mixture was prewarmed at 37° C. for 10 min. Then the enzyme substrate was added thereto to initiate the enzyme reaction. After 10 min, 200 μl of 2N hydrochloric acid was added to terminate the reaction.
(§6) As the substrates for MAO-A and MAO-B, 5-HT (serotonin) and PEA (β-phenethylamine) each labelled with ^14 C were used, respectively. The specific radioactivities of 5-HT and PEA were regulated to 11.1 MBq/mmol and 29.6 MBq/mmol, respectively, and the concentrations of them were 200 μM and 20 μM, respectively, in the reaction.
(§7) The test compound was dissolved in distilled water so that an intended concentration could be obtained in the enzyme reaction. When the test compound was insoluble in water, it was dissolved in dimethyl sulfoxide to obtain a 10% solution.
(§8) Diethyl ether and n-heptane were used as […], respectively. After the termination of the enzyme reaction, 3 ml of the solvent was added to the reaction mixture and shaken for 10 min. After centrifugation at 3,000 rpm for about 10 min, the lower aqueous layer was frozen in dry ice/acetone. The upper organic layer was recovered by decantation and the radioactivity thereof was determined with a liquid scintillation counter.
(§9) The inhibiting activities of the test compounds against MAO A and MAO B are given at the concentrations of 10^-7 M and 10^-6 M or by IC50 values.

MAO-B = target: T2, MAO-B (Rattus norvegicus, UniProt P19643); assay: MAO-B inhibition activity with rat forebrain (14C-PEA substrate); type: biochemical, rat (male Wistar); settings: for inhibition at 1 µM / Inhibiting activity MAO-B (% at 10^-6 M): 10^-6 M; for inhibition at 1 µM: read-out: Inhibiting activity MAO-B (% at 10^-6 M); for IC50: PEA 20 μM, read-out: Inhibiting activity MAO-B, IC50
T2 construct: suspension of 1 part by volume of the forebrains of male Wistar rats; from tissue; host or cells: forebrain of male Wistar rats, suspension in potassium phosphate buffer
T2 sequence (P19643 1-520): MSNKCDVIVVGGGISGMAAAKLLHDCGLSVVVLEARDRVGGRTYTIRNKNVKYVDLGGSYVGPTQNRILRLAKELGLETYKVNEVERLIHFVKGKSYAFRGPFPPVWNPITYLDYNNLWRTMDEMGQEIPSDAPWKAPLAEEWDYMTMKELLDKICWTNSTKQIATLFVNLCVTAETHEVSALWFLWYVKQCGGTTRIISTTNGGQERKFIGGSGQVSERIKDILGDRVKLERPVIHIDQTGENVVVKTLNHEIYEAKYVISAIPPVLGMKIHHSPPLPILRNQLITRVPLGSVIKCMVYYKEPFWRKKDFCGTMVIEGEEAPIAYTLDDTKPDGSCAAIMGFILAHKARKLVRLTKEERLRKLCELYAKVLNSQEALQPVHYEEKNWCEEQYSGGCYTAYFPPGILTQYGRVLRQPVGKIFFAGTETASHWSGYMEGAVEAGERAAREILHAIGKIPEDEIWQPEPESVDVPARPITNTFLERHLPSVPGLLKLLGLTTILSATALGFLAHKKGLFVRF
Procedure: as §1, §2, §3, §4, §5, §6, §7, §8, §9

| inhibition at 0.1 µM (MAO-A) | inhibition at 1 µM (MAO-B) | SMILES | also measured |
| --- | --- | --- | --- |
| 80% | 13% | COCC1CN(c2ccc3nc(C(O)CC=NO)sc3c2)C(=O)O1 (stereo not drawn) [Example 8, 3-[2-(1-Hydroxy-3-hydroxyiminopropyl)benzothiazol-6-yl]-5-methoxymethyl-2-oxazolidinone] | – |
| – | – | COC[C@H]1CN(c2ccc3nc(CCCCC#N)sc3c2)C(=O)O1 [Example 23] | IC50 (MAO-A): 0.028 µM; IC50 (MAO-B): > 100 µM |
| 24% | 10% | COC[C@H]1CN(c2ccc3nc(C4CCC(O)O4)sc3c2)C(=O)O1 (stereo partly drawn) [Example 7] | – |
| 7% | 3% | COCC1CN(c2ccc3sc(C(O)CCC#N)nc3c2)C(=O)O1 (stereo not drawn) [Example 46] | – |
| – | 13% | COCC1CN(c2ccc3nc(CNCC#N)sc3c2)C(=O)O1 (stereo not drawn) [Example 4, 3-[(2-Cyanomethylaminomethylbenzothiazol)-6-yl]-5-methoxymethyl-2-oxazolidinone] | IC50 (MAO-A): 0.039 µM |
| 15% | 14% | COCC1CN(c2ccc3nc(CCCCC#N)sc3c2)C(=O)O1 (stereo not drawn) [Example 20] | – |
| 8% | 6% | COCC1CN(c2ccc3nc(C(CCC#N)N4CCCC4)sc3c2)C(=O)O1 (stereo not drawn) [Example 40] | – |
| 15% | 2% | COCC1CN(c2ccc3nc(C(CCC#N)=NOC)sc3c2)C(=O)O1 (stereo not drawn) [Example 39] | – |
| 63% | 5% | N#CC1CCN(c2nc3ccc(N4CC(CO)OC4=O)cc3s2)CC1 (stereo not drawn) [Example 42] | – |
| 61% | 16% | N#CCCCc1nc2ccc(N3C[C@@H](CO)OC3=O)cc2s1 [Example 19] | – |
| – | 11% | COCC1CN(c2ccc3nc(COCC#N)sc3c2)C(=O)O1 (stereo not drawn) [Example 3] | IC50 (MAO-A): 0.005 µM |
| 73% | 7% | COC[C@H]1CN(c2ccc3nc(C(C)(C)CCC#N)sc3c2)C(=O)O1 [Example 25] | – |
| – | – | N#CCCCCc1nc2ccc(N3C[C@H](CO)OC3=O)cc2s1 [Example 24] | IC50 (MAO-A): 0.137 µM; IC50 (MAO-B): > 100 µM |
| – | – | COCC1CN(c2ccc3nc(CCCC#N)sc3c2)C(=O)O1 (stereo not drawn) [Example 14] | IC50 (MAO-A): 0.014 µM; IC50 (MAO-B): 579 µM |
| 87% | 13% | COC[C@H]1CN(c2ccc3nc([C@@H](O)CCC#N)sc3c2)C(=O)O1 [Example 9, 3-[2-(1(S)-Hydroxy-3-cyanopropyl)benzothiazol-6-yl]-5(R)-methoxymethyl-2-oxazolidinone] | – |
| 93% | 15% | COCC1CN(c2ccc3nc(COC(=O)c4ccccc4)sc3c2)C(=O)O1 (stereo not drawn) [Example 1, 3-(2-Benzoyloxymethylbenzothiazol-6-yl)-5-methoxymethyl-2-oxazolidinone] | – |
| – | 14% | COCC1CN(c2ccc3nc(N(CCC#N)CCC#N)sc3c2)C(=O)O1 (stereo not drawn) [Example 43] | inhibition at 1 µM (MAO-A; 10^-6 M, read-out: Inhibiting activity MAO-A (at 10^-6 M)): 87% |
| 5% | 10% | N#CCCNc1nc2ccc(N3CC(CO)OC3=O)cc2s1 (stereo not drawn) [Example 33] | – |
| 23% | 7% | COCC1CN(c2ccc3nc(NCCC#N)sc3c2)C(=O)O1 (stereo not drawn) [Example 32] | – |
| – | – | COCC1CN(c2ccc3nc(C4CCC(=O)O4)sc3c2)C(=O)O1 (stereo not drawn) [Example 34] | Inhibiting activity MAO-A (% at 10^-7 M) (MAO-A): 11%; Inhibiting activity MAO-B (% at 10^-6 M) (MAO-B): 8% |
| 52% | 9% | COCC1CN(c2ccc3sc(CCCC#N)nc3c2)C(=O)O1 (stereo not drawn) [Example 47] | – |

| inhibition at 0.1 µM (MAO-A) | inhibition at 1 µM (MAO-B) | SMILES | also measured |
| --- | --- | --- | --- |
| 75% | 7% | COC[C@@H]1CN(c2ccc3nc(CCCCC#N)sc3c2)C(=O)O1 [Example 22] | – |
| 32% | 11% | COCC1CN(c2ccc3nc(C(CCC#N)=NO)sc3c2)C(=O)O1 (stereo not drawn) [Example 38] | – |
| 64% | 11% | COCC1CN(c2ccc3nc(CO)sc3c2)C(=O)O1 (stereo not drawn) [Example 2, 3-(2-Hydroxymethylbenzothiazol-6-yl)-5-methoxymethyl-2-oxazolidinone] | – |
| – | – | COCC1CN(c2ccc3nc(N(C)CCC#N)sc3c2)C(=O)O1 (stereo not drawn) [Example 28] | IC50 (MAO-A): 0.031 µM; IC50 (MAO-B): 990 µM |
| 10% | 8% | COCC1CN(c2ccc3nc(/C=C/CCC#N)sc3c2)C(=O)O1 (stereo not drawn) [Example 21] | – |
| 9% | 3% | COCC1CN(c2ccc3nc(C(N)CCC#N)sc3c2)C(=O)O1 (stereo not drawn) [Example 41] | – |
| 42% | 15% | COCC1CN(c2ccc3nc(C(O)CCCO)sc3c2)C(=O)O1 (stereo not drawn) [Example 30] | – |
| – | – | COC[C@H]1CN(c2ccc3nc(N4CCC(C#N)CC4)sc3c2)C(=O)O1 [Example 13, (R)-3-[2-(4-Cyanopiperidino)benzothiazol-6-yl]-5-methoxymethy]-2-oxazolidinone hydrochloride] | IC50 (MAO-A): 0.29 µM; IC50 (MAO-B): 598 µM |
| – | 1% | COCC1CN(c2ccc3nc(C(C)(O)CCC#N)sc3c2)C(=O)O1 (stereo not drawn) [Example 36] | IC50 (MAO-A): 0.0068 µM |
| 73% | 7% | CC(C)(CCC#N)c1nc2ccc(N3C[C@H](CO)OC3=O)cc2s1 [Example 26] | – |
| 27% | – | COCC1CN(c2ccc3nc(C(O)CCC#N)sc3c2)C(=O)O1 (stereo not drawn) [Example 35] | Inhibiting activity MAO-B (% at 10^-6 M) (MAO-B): 0% |
| – | 11% | COCC1CN(c2ccc3nc(C4CCC(=O)O4)sc3c2)C(=O)O1 (stereo not drawn) [Example 5, 3-[2-(5-Oxotetrahydrofuran-2-yl)benzothiazol-6-ul]-5methoxymethyl-2-oxazolidinone] | Inhibiting activity MAO-A (% at 10^-7 M) (MAO-A): 78% |
| 40% | 10% | COCC1CN(c2ccc3sc(NC(=O)CC#N)nc3c2)C(=O)O1 (stereo not drawn) [Example 45] | – |
| – | – | COCC1CN(c2ccc3nc(CCC#N)sc3c2)C(=O)O1 (stereo not drawn) [Example 15] | IC50 (MAO-A): 0.256 µM; IC50 (MAO-B): 487 µM |
| 54% | 12% | COCC1CN(c2ccc3nc(C(=O)CCC#N)sc3c2)C(=O)O1 (stereo not drawn) [Example 31] | – |
| 71% | 17% | COC[C@H]1CN(c2ccc3nc(CCCC#N)sc3c2)C(=O)O1 [Example 16] | – |
| 6% | 4% | COCC1CN(c2ccc3sc(C)nc3c2)C(=O)O1 (stereo not drawn) [Example 44] | – |
| – | – | COCC1CN(c2ccc3nc(C(O)CCC#N)sc3c2)C(=O)O1 (stereo not drawn) [Example 27] | IC50 (MAO-A): 0.0067 µM; Inhibiting activity MAO-B (% at 10^-6 M) (MAO-B): 10% |
| 24% | 9% | COC[C@@H]1CN(c2ccc3nc(CCCC#N)sc3c2)C(=O)O1 [Example 17] | – |
| – | – | CN(CCC#N)c1nc2ccc(N3CC(CO)OC3=O)cc2s1 (stereo not drawn) [Example 29] | IC50 (MAO-A): 0.019 µM; IC50 (MAO-B): 2240 µM |
| – | – | N#CCCCc1nc2ccc(N3C[C@H](CO)OC3=O)cc2s1 [Example 18] | IC50 (MAO-A): 0.021 µM; IC50 (MAO-B): 930 µM |
